Experimental data reported in patent US20230219951A1, “PYRIDINE-PYRIMIDINE DERIVATIVE, PREPARATION METHOD THEREFOR AND PHARMACEUTICAL USE THEREOF” (Jiangsu Hengrui Pharmaceuticals Co., Ltd., priority 2020, published 2023).

What was measured:
[1] = target: T1, interaction between the KRAS protein subtype G12D and the SOS1 protein (Homo sapiens, UniProt Q07889); test: Inhibition of the interaction between KRAS G12D and SOS1 protein (AlphaLISA/AlphaScreen); format: binding; settings: KRAS G12D + GST-TEV-SOS1(564-1049) + GDP
T1 construct: GST-TEV-SOS1(564-1049) (Viva Biotech, SOS1-191010); purchased SOS1: Viva Biotech; KRAS: Shanghai Panchao Biotechnology Co., Ltd. SOS1-191010
T1 sequence (Q07889 564-1049): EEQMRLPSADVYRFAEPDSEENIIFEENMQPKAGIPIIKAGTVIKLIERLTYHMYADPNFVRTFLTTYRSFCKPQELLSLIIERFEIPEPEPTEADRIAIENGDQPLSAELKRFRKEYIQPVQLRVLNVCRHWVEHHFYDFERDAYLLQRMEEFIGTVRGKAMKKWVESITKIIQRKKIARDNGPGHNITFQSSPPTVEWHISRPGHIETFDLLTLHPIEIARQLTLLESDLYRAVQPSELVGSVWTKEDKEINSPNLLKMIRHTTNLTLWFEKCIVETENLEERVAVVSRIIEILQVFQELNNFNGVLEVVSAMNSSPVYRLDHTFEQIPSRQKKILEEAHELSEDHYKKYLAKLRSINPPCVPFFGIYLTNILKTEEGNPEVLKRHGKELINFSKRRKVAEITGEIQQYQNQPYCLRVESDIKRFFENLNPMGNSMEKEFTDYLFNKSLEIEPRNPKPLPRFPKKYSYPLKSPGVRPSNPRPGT
Experimental: (§1) Test Example 1: Inhibitory Ability of Compounds of the Present Disclosure to the Interaction Between the KRAS Protein Subtype G12D or G12V and the SOS1 Protein. The inhibitory ability of the compounds of the present disclosure to the interaction between the KRAS protein subtype G12D or G12V and the SOS1 protein was determined by the following method. The experimental method was briefly described as follows:
(§2) 1. The experimental buffer was prepared prior to the start of the experiment: 1×PBS+0.1% BSA+0.05% tween 20.
(§3) 2. KRAS G12D and KRAS-G12V proteins were labeled with biotin using the biotin labeling kit.
(§4) 1. Firstly, the biotin-labeled KRAS G12D or KRAS G12V protein was mixed and incubated with the SOS1 protein and GDP for later use.
(§5) 2. AlphaLISA glutathione acceptor beads and AlphaScreen streptavidin donor beads were mixed at a ratio of 1:1 to make the concentration of 40 μg/mL for later use.
(§6) 3. The compound was formulated with the experimental buffer to obtain 10 concentration points by 5-fold gradient dilution from an initial concentration of 40 μM.
(§7) 4. In the 384-well microplate, 10 μL of a mixture of KRAS G12D or KRAS G12V protein and SOS1 and GDP and 5 μL of the diluted compound were added to each well and incubated at room temperature for 30 min away from the light.
(§8) 5. Then, 5 μL of a mixture of AlphaLISA glutathione acceptor beads and AlphaScreen streptavidin donor beads was added to each well and incubated at room temperature for 60 min away from the light.
(§9) 6. The fluorescence values were read on a multi-mode microplate reader.
(§10) 7. IC50 values of the compounds were calculated using Graphpad Prism.

H358 cells = test: Inhibition of proliferation of H358 cells (CellTiter-Glo 3D); format: cell-based; settings: Homo sapiens, NCI-H358, low adsorption plate, 120 h
Experimental: This example is intended to evaluate the inhibition effect of the compounds of the present disclosure on the KRAS target (containing the G12C mutation) by testing the inhibition effect of the compounds of the present disclosure on the proliferation of H358 cells.
H358 cells (ATCC, CRL-5807) were cultured in a complete medium, namely RPMI1640 medium (Hyclone, SH30809.01) containing 10% fetal bovine serum (Corning, 35-076-CV). On the first day of the experiment, the H358 cells were seeded into a 96-well low adsorption plate (Coming, CLS7007-24EA) at a density of 1500 cells/well with a complete medium to form 90 μL of cell suspension per well. The plate was centrifuged at 2000 rpm for 5 min at room temperature and then incubated overnight in a cell incubator at 37° C. with 5% CO2. The next day, 10 μL of test compound diluted in a gradient prepared with the complete medium was added to each well. The final concentrations of the compound were 9 concentration points obtained by 5-fold gradient dilution from 10 μM. A blank control containing 0.1% DMSO was set. The plate was incubated in a cell incubator at 37° C. with 5% CO2 for 120 h. On the seventh day, the 96-well cell culture plate was taken out and 50 μL of CellTiter-Glo® 3D reagent (Promega, G9682) was added into each well. The plate was shaken at room temperature for 25 min, pipetted and mixed well, from which 50 μL of the mixture was transferred into a white impermeable 96-well plate (PE, 6005290). The luminescence signal values were read using a multi-mode microplate reader (PerkinElmer, VICTOR 3).
IC50 values for the inhibitory activity of the compounds were calculated using Graphpad Prism software.

[2] = target: T2, interaction between the KRAS protein subtype G12V and the SOS1 protein (Homo sapiens, UniProt Q07889); test: Inhibition of the interaction between KRAS G12V and SOS1 protein (AlphaLISA/AlphaScreen); format: binding; settings: KRAS G12V + GST-TEV-SOS1(564-1049) + GDP
T2 construct: GST-TEV-SOS1(564-1049) (Viva Biotech, SOS1-191010); purchased SOS1: Viva Biotech; KRAS: Shanghai Panchao Biotechnology Co., Ltd. SOS1-191010
T2 sequence (Q07889 564-1049): T1 sequence (Q07889 564-1049)
Experimental: as §1, §2, §3, §4, §5, §6, §7, §8, §9, §10

[3] = test system: ERK phosphorylation of H358 cells; test: Inhibition of ERK phosphorylation of H358 cells (HTRF pERK/total ERK); format: cell-based; settings: Homo sapiens, NCI-H358, 1 h incubation, pERK/total ERK ratio
Experimental: This experiment is intended to evaluate the inhibition effect of the compounds of the present disclosure on the KRAS target (containing the G12C mutation) according to IC50 by determining the inhibition effect of the compounds on ERK phosphorylation of the cells.
H358 cells (ATCC, CRL-5807) were cultured in RPMI1640 (Hyclone, SH30809.01) complete medium containing 10% fetal bovine serum. On the first day of the experiment, the H358 cells were seeded into a 96-well plate at a density of 25,000 cells/well with a complete medium to form 190 μL of cell suspension per well. The plate was incubated overnight in a cell incubator at 37° C. with 5% CO2. The next day, 10 μL of test compound diluted in a gradient prepared with the complete medium was added to each well. The final concentrations of the compound were 9 concentration points obtained by 5-fold gradient dilution from 10 μM. A blank control containing 0.1% DMSO was set. The plate was incubated in a cell incubator at 37° C. with 5% CO2 for 1 h. 1 h later, the 96-well cell culture plate was taken out, the medium was removed by pipetting, 200 μL PBS (Shanghai BasalMedia Technologies Co., Ltd., B320) was added to each well, and the cells were washed once. PBS was removed by pipetting, 50 μL of lysis buffer (Cisbio, 64KL1FDF) containing a blocking reagent (Cisbio, 64KB1AAC) was added to each well, and the plate was shaken on a shaker at room temperature for 40 min for lysis. After lysis, the lysate was pipetted and mixed well, 16 μL of lysate was transferred from each well to each of two HTRF 96-well assay plates (Cisbio, 66PL96100), and then 4 μL of premixed phospho-ERK1/2 antibody solution (Cisbio, 64AERPEG) or 4 μL of premixed total-ERK1/2 antibody solution (Cisbio, 64NRKPEG) was added to each of the two plates. The microplate was sealed with a sealing membrane, centrifuged for 1 min in a microplate centrifuge, and incubated overnight at room temperature away from the light. On the third day, the fluorescence values at an excitation wavelength of 337 nm and at emission wavelengths of 665 nm and 620 nm were read using a PHERAstar multi-mode microplate reader (BMG Labtech, S/N 471-0361).
IC50 values for inhibitory activity of the compounds were calculated using Graphpad Prism software based on compound concentrations and pERK/total ERK ratio.

Structure (SMILES)	IC50 [1] [nM]	IC50 (H358 cells) [nM]	IC50 [2] [nM]	IC50 [3] [nM]
CC(=O)N1CC=C(c2cc3c(N[C@H](C)c4cc(N)cc(C(F)(F)F)c4)nc(C)nc3[nH]c2=O)CC1 [Example 4, (R)-6-(1-acetyl-1,2,3,6-tetrahydropyridin-4-yl)-4-((1-(3-amino-5-(trifluoromethyl)phenyl)ethyl)amino)-2-methylpyrido[2,3-d]pyrimidin-7(8H)-one]	17	97	67	41
COCC(=O)N1CCC(c2cc3c(N[C@H](C)c4cccc(C(F)F)c4F)nc(C)nc3[nH]c2=O)CC1 [Example 20, (R)-4-((1-(3-(difluoromethyl)-2-fluorophenyl)ethyl)amino)-6-(1-(2-methoxyacetyl)piperidin-4-yl)-2-methylpyrido[2,3-d]pyrimidin-7(8H)-one]	19	118	60	78
Cc1nc(N[C@H](C)c2cccc3c2OCC3(F)F)c2cc([C@]3(O)CC[C@@H](O)CC3)c(=O)[nH]c2n1 (racemic) [Example 25-p1, rac-4-(((R)-1-(3,3-difluoro-2,3-dihydrobenzofuran-7-yl)ethyl)amino)-6-((1s,4S)-1,4-dihydroxycyclohexyl)-2-methylpyrido[2,3-d]pyrimidin-7(8H)-one]	31	120	35	101
Cc1nc(N[C@H](C)c2cccc(C(F)F)c2F)c2cc([C@]3(O)CC[C@@H](O)CC3)c(=O)n(C)c2n1 [Example 28-p1, 4-(((R)-1-(3-(difluoromethyl)-2-fluorophenyl)ethyl)amino)-6-((1s,4S)-1,4-dihydroxycyclohexyl)-2,8-dimethylpyrido[2,3-d]pyrimidin-7(8H)-one]	100	243	97	231
Cc1nc(N[C@H](C)c2cccc(C(F)F)c2F)c2cc(C3CCN(C(=O)CC#N)CC3)c(=O)[nH]c2n1 [Example 17, (R)-3-(4-(4-((1-(3-(difluoromethyl)-2-fluorophenyl)ethyl)amino)-2-methyl-7-oxo-7,8-dihydropyrido[2,3-d]pyrimidin-6-yl)piperidin-1-yl)-3-oxopropanenitrile]	28	65	30	79
Cc1nc(N[C@H](C)c2cccc(C(F)F)c2F)c2cc(C3(O)CCN(C(=O)CC#N)CC3)c(=O)[nH]c2n1 [Example 21, (R)-3-(4-(4-((1-(3-(difluoromethyl)-2-fluorophenyl)ethyl)amino)-2-methyl-7-oxo-7,8-dihydropyrido[2,3-d]pyrimidin-6-yl)-4-hydroxypiperidin-1-yl)-3-oxopropanenitrile]	15	62	54	87
Cc1nc(N[C@H](C)c2cccc(C(F)(F)CO)c2F)c2cc(C3=CCOCC3)c(=O)[nH]c2n1 [Example 1, (R)-4-((1-(3-(1,1-difluoro-2-hydroxyethyl)-2-fluorophenyl)ethyl)amino)-6-(3,6-dihydro-2H-pyran-4-yl)-2-methylpyrido[2,3-d]pyrimidin-7(8H)-one]	22	34	54	59
Cc1nc(N[C@H](C)c2cccc(C(F)F)c2F)c2cc(OC3CN(C(=O)CF)C3)c(=O)[nH]c2n1 [Example 27, (R)-4-((1-(3-(difluoromethyl)-2-fluorophenyl)ethyl)amino)-6-((1-(2-fluoroacetyl)azetidin-3-yl)oxy)-2-methylpyrido[2,3-R]pyrimidin-7(8H)-one]	20	202	52	258
Cc1nc(N[C@H](C)c2cccc3c2OCC3(F)F)c2cc([C@]3(O)CC[C@H](O)CC3)c(=O)[nH]c2n1 (racemic) [Example 25-p2, rac-4-(((R)-1-(3,3-difluoro-2,3-dihydrobenzofuran-7-yl)ethyl)amino)-6-((1r,4R)-1,4-dihydroxycyclohexyl)-2-methylpyrido[2,3-d]pyrimidin-7(8H)-one]	37	1020	65	489
Cc1nc(N[C@H](C)c2cccc(C(F)F)c2F)c2cc([C@]3(O)CC[C@H](O)CC3)c(=O)[nH]c2n1 [Example 18-p2, 4-(((R)-1-(3-(difluoromethyl)-2-fluorophenyl)ethyl)amino)-6-((1r,4R)-1,4-dihydroxycyclohexyl)-2-methylpyrido[2,3-d]pyrimidin-7(8H)-one]	40	213	112	222
Cc1nc(N[C@H](C)c2cccc(C(F)F)c2F)c2cc([C@]3(O)CC[C@H](O)CC3)c(=O)n(C)c2n1 [Example 28-p2, 4-(((R)-1-(3-(difluoromethyl)-2-fluorophenyl)ethyl)amino)-6-((1r,4R)-1,4-dihydroxycyclohexyl)-2,8-dimethylpyrido[2,3-d]pyrimidin-7(8H)-one]	175	716	187	937
